Where a name gives a salt, the structure may show the parent alone.
Each molecule was assayed on MTT (mouse pheochromocytoma) (assay: IC50 of cell viability (ATP content)). Details: (24 or 48 h).
How it was run: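 MTT mouse pheochromocytoma cells in white 1536-well plates were treated for 24 or 48 hrs with library compounds at 8 final concentrations from 0.5 nM to 46 µM. ATP content was measured with CellTiter-Glo luminescence, using positive-control wells as 100% and DMSO wells as 0%. IC50 came from a four-parameter logistic fit.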

| SMILES | IC50 of cell viability [µM] |
| --- | --- |
| C[C@H]1CN(C2CCC(C#N)(c3ccc(F)cc3)CC2)CC[C@@]1(C(=O)O)c1ccccc1 (stereo not given in full) [Levocabastine hydrochloride] | > 46 |
| c1ccc2c(c1)Sc1ccccc1N2C[C@H]1CN2CCC1CC2 [Levomequitazine] | > 46 |
| CCC(=O)O[C@@](Cc1ccccc1)(c1ccccc1)[C@@H](C)CN(C)C.O=[S+]([O-])(O)c1ccc2ccccc2c1 [Levopropoxyphene napsylate] | > 46 |
| N[C@@H](Cc1cc(I)c(Oc2cc(I)c(O)c(I)c2)c(I)c1)C(=O)O [Levothyroxine] | > 46 |
| CN1CCC(OC(=O)C(Oc2ccc(Cl)cc2)Oc2ccc(Cl)cc2)CC1 [Lifibrate] | > 46 |
| CN(C1=CC=CC=C1)C(=O)C/2=C(O)/C3=C(C=CC=C3)N(C)C2=O [Linomide] | > 46 |
| O=C1N(c2ccccc2)c2ccccc2C1(Cc1ccncc1)Cc1ccncc1 [Linopirdine dihydrochloride] | > 46 |
| O=C(O)Cc1cn(-c2ccccc2)nc1-c1ccc(Cl)cc1 [Lonazolac] | > 46 |
| O=C(O)c1nn(Cc2ccc(Cl)cc2Cl)c2ccccc12 [Lonidamine] | > 46 |
| O=C1Nc2ccc(Cl)cc2C(c2ccccc2Cl)=NC1O (stereo not given) [Lorazepam] | > 46 |
| CCCC(C)(COC(N)=O)COC(=O)NC1CC1 (stereo not given) [Lorbamate] | > 46 |
| C[C@H]1CNCCc2ccc(Cl)cc21 [Lorcaserin] | > 46 |
| Cl/C(=C\n1cncn1)c1ccc(Cl)cc1Cl [Loreclezole hydrochloride] | > 46 |
| CN1C(C(=O)Nc2ccccn2)C(=O)c2sc(Cl)cc2[S+]1(=O)[O-] (stereo not given) [Lornoxicam] | > 46 |
| CCNC(=O)NCc1cccc(Cl)c1 [Lozilurea] | > 46 |
| O=C(NC(=O)c1c(F)cccc1F)Nc1cc(Cl)c(OC(F)(F)C(F)C(F)(F)F)cc1Cl (stereo not given) [Lufenuron] | > 46 |
| N#C/C(=C1/SC[C@@H](c2ccc(Cl)cc2Cl)S1)n1ccnc1 [Luliconazole] | > 46 |
| Cc1ccc(Nc2c(F)cccc2Cl)c(CC(=O)O)c1 [Lumiracoxib] | > 46 |
| C[C@]12CC[C@@H]3[C@H](CC\C4=C\CCC[C@H]34)[C@@H]1CC[C@]2(O)C#C [Lynestrenol] | > 46 |

| SMILES | IC50 of cell viability [µM] |
| --- | --- |
| CCN(CC)C(=O)[C@H]\1CN(C)[C@@H]\2CC3=C[NH]C4=C3C(=CC=C4)C2=C1 [Lysergic acid diethylamide] | > 46 |
| CC(C)(C)NCC(O)c1cc(Cl)c(N)c(C(F)(F)F)c1 (stereo not given) [MABUTEROL HYDROCHLORIDE] | > 46 |
| O=C1[O][Mg]2([O]C(=O)c3ccccc3[O]2)[O]c2ccccc21 [MAGNESIUM SALICYLATE] | > 46 |
| CCOC(=O)CC(SP(=S)(OC)OC)C(=O)OCC (stereo not given) [MALATHION] | > 46 |
| O=C(O)/C=C/C(=O)O [MALEIC ACID] | > 46 |
| CNCCCC12CCC(c3ccccc31)c1ccccc12 [MAPROTILINE] | > 46 |
| CNC(=O)NC(O)C(Cl)(Cl)Cl (stereo not given) [MECLORALUREA] | > 46 |
| CN(CC1(C)CCCO1)[S+](=O)([O-])c1ccc(Cl)c([S+](N)(=O)[O-])c1 (stereo not given) [MEFRUSIDE] | > 46 |
| COc1ccc2[nH]cc(CCNC(C)=O)c2c1 [MELATONIN] | > 46 |
| CC(C)(C)NC[C@H](O)c1ccc(O)cc1Cl [MELUADRINE TARTRATE] | > 46 |
| CC12CC3CC(C)(C1)CC(N)(C3)C2 [MEMANTINE] | > 46 |
| C\C1=C\C(=O)C2=C(C=CC=C2)C1=O [MENADIONE] | > 46 |
| CNc1ccc(C(=O)CC(O)CCC(C)C2OC(=O)CC(O)CC(=O)CC(O)CC(O)CC(O)CC(O)CC3(O)CC(O)C(C(=O)OC)C(CC(O[C@@H]4OC(C)C(O)C(N)C4O)/C=C/C=C/C=C/C=C/C=C/C=C/C=C/C2C)O3)cc1 (stereo not given in full) [MEPARTRICIN] | > 46 |
| Cc1ccccc1OCC(O)CO (stereo not given) [MEPHENESIN] | > 46 |
| CC[C@@]1(c2ccccc2)NC(=O)N(C)C1=O [MEPHENYTOIN] | > 46 |
| COc1ccc(CN(CCN(C)C)c2ccccn2)cc1 [MEPYRAMINE] | > 46 |
| COc1ccc(O)cc1 [MEQUINOL] | > 46 |
| O=[S+]([O-])(O)CCS [MESNA] | > 46 |

Other lines, results leading:

| IC50 of cell viability [µM] | SMILES |
| --- | --- |
| > 46 | CC1(C)Oc2ccc(C#N)cc2[C@@H](N2CCCC2=O)[C@@H]1O [Levcromakalim] |
| > 46 | CCCCN1CCCC[C@H]1C(=O)Nc1c(C)cccc1C [Levobupivacaine hydrochloride] |
| > 46 | C#C[C@]1(O)CC[C@H]2[C@@H]3CCC4=CC(=O)CC[C@@H]4[C@H]3CC[C@@]21CC [Levonorgestrel] |
| > 46 | CCN1CCC[C@H]1CNC(=O)c1cc([S+](N)(=O)[O-])ccc1OC [Levosulpiride] |
| > 46 | CNC(=N)NC(=O)Nc1c(C)cccc1C [Lidamidine] |
| > 46 | Cc1cccc(C)c1NC(=O)CN(CC(=O)O)CC(=O)O [Lidofenin] |
| > 46 | Cc1cccc(C)c1NC(=O)CN1CCN(CCCC(c2ccc(F)cc2)c2ccc(F)cc2)CC1 [Lidoflazine] |
| > 46 | CCC[C@@H]1C[C@@H](C(=O)N[C@@H]([C@H]2O[C@H](SC)[C@H](O)[C@@H](O)[C@H]2O)[C@@H](C)O)N(C)C1 [Lincomycin hydrochloride] |
| > 46 | CC(=O)NC[C@@H]1CN(c2ccc(N3CCOCC3)c(F)c2)C(=O)O1 [Linezolid] |
| > 46 | CCCCC/C=C\C/C=C\CCCCCCCC(=O)O [Linoleic acid] |
| > 46 | NCCCC[C@H](N[C@@H](CCc1ccccc1)C(=O)O)C(=O)N1CCC[C@@H]1C(=O)O.O.O [Lisinopril] |
| > 46 | CC(O)CCCCn1c(=O)c2c(ncn2C)n(C)c1=O (stereo not given) [Lisofylline] |
| > 46 | CCN1\C=C(\C(O)=O)C(=O)C2=CC(=C(N3CCN[C@@H](C)C3)C(=C12)F)F [Lomefloxacin HCl] |
| > 46 | CCN1\C=C(\C(O)=O)C(=O)C2=CC(=C(N3CCN[C@@H](C)C3)C(=C12)F)F [Lomefloxacin hydrochloride] |
| > 46 | CCOC(=O)O[C@]1(C(=O)OCCl)CC[C@H]2[C@@H]3CCC4=CC(=O)C=C[C@]4(C)[C@H]3[C@@H](O)C[C@@]21C [Loteprednol etabonate] |
| > 46 | CC[C@H](C)C(=O)O[C@H]1C[C@@H](C)\C=C2\C=C/[C@H](C)[C@H](CC[C@@H]3C[C@@H](O)CC(=O)O3)[C@@H]12 [Lovastatin] |
| > 46 | CN1CCN(CC1)\C2=N\C3=C(OC4=C2C=C(Cl)C=C4)C=CC=C3.OC(=O)CCC(O)=O [Loxapine succinate] |

| IC50 of cell viability [µM] | SMILES |
| --- | --- |
| > 46 | CCCCC(F)(F)[C@@]1(O)CC[C@H]2[C@@H](CC(=O)[C@@H]2CCCCCCC(=O)O)O1 [Lubiprostone] |
| > 46 | NCCCCC(NC(=O)C1CCCN1C(=O)C1CSSCC(N)C(=O)NC(Cc2ccc(O)cc2)C(=O)NC(Cc2ccccc2)C(=O)NC(CCC(N)=O)C(=O)NC(CC(N)=O)C(=O)N1)C(=O)NCC(N)=O (stereo not given) [Lypressin] |
| > 46 | NCCCCC(N)C(=O)O (stereo not given) [Lysine] |
| > 46 | O=C(O)CC(O)C(=O)O.[NaH] (stereo not given) [MALIC ACID] |
| > 46 | Cc1cc(C)c(NC(=O)CN(CC(=O)O)CC(=O)O)c(C)c1Br [MEBROFENIN] |
| > 46 | CNC1(C)C2CCC(C2)C1(C)C (stereo not given) [MECAMYLAMINE] |
| > 46 | O=P(O)(O)CP(=O)(O)O [MEDRONIC ACID] |
| > 46 | CC1CC2C(CC[C@]3(C)C2CC[C@@]3(OC(C)=O)C(C)=O)[C@]\4(C)CCC(=O)\C=C14 (stereo not given in full) [MEDROXYPROGESTERONE ACETATE] |
| > 46 | CCN(CC)CCNC(=O)COc1ccc(OC)cc1.Cl [MEFEXAMIDE] |
| > 46 | CCCCC/C=C/C/C=C/CCCCCCCC(=O)NC(C)c1ccccc1 (stereo not given) [MELINAMIDE] |
| > 46 | CN1\C(=C(\O)C2=CC=CC=C2[S+]1([O-])=O)C(=O)NC3=NC=C(C)S3 [MELOXICAM] |
| > 46 | CC1CCN(CCCC(=O)c2ccc(F)cc2)CC1 [MELPERONUM] |
| > 46 | CC1CCC(C(C)C)C(O)C1 (stereo not given) [MENTHOL] |
| > 46 | CC1CCC(C(C)C)C(=O)C1 (stereo not given) [MENTHONE] |
| > 46 | CC1CCC(C(C)C)C(OC(=O)c2ccccc2O)C1 (stereo not given) [MENTHYL SALICYLATE] |
| > 46 | Cc1cccc(C)c1NC(=O)C1CCCCN1C.Cl (stereo not given) [MEPIVACAINE HYDROCHLORIDE] |
